Target: T1, SHP2 G503V (Homo sapiens, UniProt Q06124, G503V)
T1 construct: expressed in transfected cells; host or cells: Flp-In T-REx-293 (T-REx-293-SHP2)
Test: EGF-induced pERK AlphaLISA in T-REx-293-SHP2 cells, G503V
Assay type: cell-based
Conditions: Variant G503V
Description: An experimental system was creating to test the activity of SHP2 mutants on an isogenic background (FIG. 6). The Flp-In T-REx-293 cell line was obtained from Gibco® and cultivated in high glucose DMEM™ containing 2 mM L-glutamine (Hyclone®), supplemented with 10% FBS (Hyclone®), 1% penicillin/streptomycin (Gibco®), 100 μg/mL Zeocin™ (Gibco®), and 15 μg/mL blasticidin (Gibco®) in a humidified cell culture incubator at 37° C., 5% CO2.
Wild type or mutant SHP2 variants were synthesized and subcloned into the pcDNA5/FRT/TO vector (ThermoFisher). Plasmids were co-transfected with the pOG44 Flp recombinase expression plasmid (ThermoFisher®) into Flp-In T-REx-293 cells using X-tremegene 9 DNA transfection reagent (Sigma®), according to the manufacturer's instructions. […]
For the final 5 minutes of drug treatment, cells were stimulated with 50 ng/mL Epidermal Growth Factor (Sigma®). […] Samples were read using an EnVision Multilabel Plate Reader (Perkin Elmer®) using standard AlphaLISA settings. Assay data was plotted and EC50 values were determined using four-parameter concentration-response model in GraphPad Prism 7. […]

For `Cc1nc(N2CCC3(CC2)CO[C@@H](C)[C@H]3N)c(CO)nc1-c1cccc(Cl)c1Cl` [Compound B], the Cellular sensitivity was “no (Sensitive if IC50 < 2000 nM)”.

Source: US20210154190A1, “SHP2 INHIBITOR COMPOSITIONS AND METHODS FOR TREATING CANCER” (Revolution Medicines, Inc., priority 2018, published 2021)
